The values below come from US20250099512A1, “USE OF BACTEROIDES FRAGILIS IN IMPROVEMENT AND TREATMENT OF DIARRHEA” (priority 2022, published 2025).

Experiment [1] has as its system Cryptosporidium cuniculus. The experiment in a line: Effect on diarrhea in rabbits infected with Cryptosporidium cuniculus, oocysts in stools (Example 12). The experiment is classed as in vivo, New Zealand white rabbits. An excerpt: A parasite-associated diarrhea model was constructed by intragastric administration of Cryptosporidium cuniculus oocysts (extracted from a single positive stool sample from a rabbit farm in Jilin) in New Zealand white rabbits. Subsequently, the Bacteroides fragilis live bacteria solution, inactivated bacteria powder and lysate solution (prepared in Example 2) were each used for treatment. The therapeutic effects of the Bacteroides fragilis live bacteria solution, inactivated bacteria powder and lysate solution were observed.
New Zealand white rabbits aged 35 days were selected and randomly divided into the following 6 groups: a blank group (group 1), a model group (group 2), a positive control group (nitazoxanide) (group 3), a Bacteroides fragilis inactivated bacteria powder group (group 4), a Bacteroides fragilis lysate solution group (group 5), and a Bacteroides fragilis live bacteria solution group (group 6), with 8 rabbits in each group. The New Zealand white rabbits in groups 2 to 6 were intragastrically inoculated with 1.5×10^4 Cryptosporidium cuniculus oocysts, and the blank group was intragastrically given normal saline. […] The stools were collected to prepare a stool suspension, and structures with oocysts were observed under a microscope, indicating successful modeling. Therefore, treatment could be carried out. The blank group was given normal saline, and the treatment groups were subjected to drug administration. The treatment was carried out twice daily for 7 consecutive days. The New Zealand white rabbits were observed daily for diarrhea condition. On day 1 of the treatment and at the end of the treatment, the stool samples were collected, and the number of oocysts was observed under a microscope.

Experiment [2] has as its system mice with Escherichia coli-induced diarrhea. The experiment in a line: Effect on mice with Escherichia coli-induced diarrhea (Example 6). The experiment is classed as in vivo. The conditions noted are these: positive control, berberine hydrochloride 0.01 g/mL i.g. QD*7 days; Escherichia coli i.p. model. Here is the method:
Escherichia coli preserved on a slant was inoculated on a nutrient agar plate and cultured at 37° C. for 24 h. Several colonies were then picked, inoculated into MH broth, followed by another 24 hours of culture at 37° C. The culture was then diluted with sterilized normal saline and subjected to turbidity adjustment using a 0.5 Mcfarland turbidimetric tube, thus achieving a bacterial content of 3×10^8 CFU/mL.
Mice weighing about 20 g were selected, and each mouse was intraperitoneally injected with 0.2 mL of the Escherichia coli bacteria solution with a bacterial content of 3×10^8 CFU/mL for diarrhea induction. A positive control group received a 0.01 g/mL aqueous berberine hydrochloride solution administered intragastrically. The experimental grouping and procedures were the same as in Example 3. The mice were continuously observed for 5 h, and the diarrhea indices of the mice were recorded.

Structures are written as SMILES. Where a name gives a salt, the structure may show the parent alone.

Take `CC(=O)Oc1ccccc1C(=O)Nc1ncc([N+](=O)[O-])s1` [nitazoxanide]: the “Number of oocysts in stools (×10^6 oocysts/rabbit, mean ± SD)” value is 1.8 ± 0.6 ×10^6 oocysts/rabbit in experiment [1] (D 1 of administration, i.g. Bid*7 days, nitazoxanide 10 mg/kg, Bacteroides fragilis 1 × 10^8 cells/mL); 3.2 ± 1.5 ×10^6 oocysts/rabbit in experiment [1] (D 2 of administration, doses as Table 23); 2.8 ± 0.9 ×10^6 oocysts/rabbit in experiment [1] (D 3 of administration, doses as Table 23); 2.2 ± 0.2 ×10^6 oocysts/rabbit in experiment [1] (D 4 of administration, doses as Table 23); 1.5 ± 1.1 ×10^6 oocysts/rabbit in experiment [1] (D 5 of administration, doses as Table 23); 1.3 ± 0.1 ×10^6 oocysts/rabbit in experiment [1] (D 6 of administration, doses as Table 23). For the same molecule, the “Number of oocysts in stools (×10^6 oocysts/rabbit, mean ± SD)” value in experiment [1] (D 7 of administration, doses as Table 23) is 0.6 ± 0.2 ×10^6 oocysts/rabbit. Moreover, in experiment [1] (FIG. 5, P<0.0001, doses as Table 23), the “total number of oocysts in the stools of each New Zealand rabbit during the treatment period” value is “significantly lower than that in the model group”.
Consider `COc1ccc2cc3[n+](cc2c1OC)CCc1cc2c(cc1-3)OCO2` [berberine hydrochloride], for which, in experiment [2], the Diarrhea index was 1.25 ± 0.13.
